Reference: patent US20190144368A1, “Compounds and compositions for biofilm prevention” (INHIBIO AS, priority 2016, published 2019)
Several values for one entry are separate records, joined by “and”; a condition that tells them apart may be missing. Equal values may be shown once.

Assays:
[1] = tested on: Gram positive bacteria (three Staphylococcus aureus strains); assay: Biofilm formation in polystyrene microtiter plates (crystal violet, OD595), Gram positive bacteria; assay type: cell-based; details: one day at 37 °C
Method: (§1) All experiments were performed by using sterile 96-wells polystyrene microtiter plates (Nunc, Nuncleon, Roskilde, Denmark) under conditions promoting biofilm formation by the different bacterial genera. The Inhibio compound preparations of the invention; 1,3-cyclohexanedione, 1,4-cyclohexanedione, cyclopentanone, 5-ethylcyclohexane-1,3-dione and 5-methyl-1,3 cyclohexanedione 98% were solved directly in Tryptic Soy Broth (TSB) 1+1 or Liquid Microbiology Broth (LB) broth without NaCl (LB^wo/NaCl) to obtain the test concentrations, i.e. from 1 mg/ml to 10 mg/ml.
Three Staphylococcus aureus strains of animal origin were used in this study. All strains were stored at −80° C. in Brain Heart Infusion Broth (BHI) (Difco, BD, Franklin Lakes, N.J., USA) supplemented with 15% glycerine (Merck KGaA, Darmstadt, Germany) and were recovered on blood agar at 37.0±1.0° C. The bacterial cultures were then transferred into TSB and were incubated statically overnight at 37.0±1.0° C. to obtain an overnight working culture. A total of 2 μl of this suspension was transferred to each 96 wells of polystyrene microtiter plates (Nunc, Nuncleon, Roskilde, Denmark) containing 198 μl TSB 1+1 with dissolved Inhibio compounds in the following concentrations: 0 mg/ml, 1 mg/ml and 10 mg/ml for 1,3-cyclohexanedione; 0 mg/ml and 10 mg/ml for 1,4-cyclohexanedione; and 0 mg/ml, 1 mg/ml, 2 mg/ml and 10 mg/ml for 5-ethylcyclohexane-1,3-dione and 5-Methyl-1,3-cyclohexanedione in the total amount of broth. Three parallels of each strain were used and the microtiter plates were incubated statically for one day, at 37±1.0° C. After incubation, OD595 was measured in a microplate photometer (Multiscan EX; Thermo Fisher Scientific Inc, Waltham, Mass., USA) before the plates were gently washed three times with 290 μl tap water. The plates were dried in room temperature before addition of 220 μl 1% crystal violet (Sigma-Aldrich, St. Louis, Mo., USA). After 30 minutes incubation in room temperature, the plates were washed three times with tap water before the addition of 220 μl ethanol:acetone (70:30 w:w) to dissolve the bound dye. The plates were incubated for 10 minutes in room temperature before OD595 was measured after the bound dye was dissolved using ethanol:acetone. For each strain, the result was calculated by subtracting the median OD595 of the three parallels of the control (test broth only) from the median OD595 of the three parallels of sample. Further, the average result of all three Gram positive strains included in the study were calculated. Three independent experiments were performed and the average was evaluated.

[2] = tested on: Gram negative bacteria (Salmonella isolates); assay: Biofilm formation in polystyrene microtiter plates (crystal violet, OD595), Gram negative bacteria; assay type: cell-based, Salmonella ser. Typhimurium, Salmonella ser. Agona; details: 10 mg/ml, two days at 20 °C
Method: as §1
(§2) One Salmonella ser. Typhimurium (S. Typhimurium), two Salmonella ser. Agona (S. Agona) and two Escherichia coli (E. coli) isolates were used in these studies. The studies performed using 1,3-cyclohexanedione and 1,4-cyclohexanedione were done on Salmonella isolates only. The studies comparing Menthone to 1,3-cyclohexanedione were using two E. coli strains, E. coli 1242 and E. coli 1153, see FIG. 11. The Salmonella isolates were isolated from Norwegian feed factories except one S. Typhimurium strain which was a culture collection strain (ATCC 14028). The E. coli isolates were of animal origin. All strains were stored at −80° C. in BHI supplemented with 15% glycerine and were recovered on blood agar at 37.0±1.0° C. The bacterial cultures were then transferred into LB broth and incubated statically overnight at 37.0±1.0° C. to obtain an overnight working culture. A total of 30 μl of this suspension was transferred to each well in 96 wells polystyrene microtiter plates (Nunc, Nuncleon, Roskilde, Denmark) in triplets. The wells were containing 100 μl LB^wo/NaCl (bacto-tryptone 10 g/l, yeast extract 5 g/l) with 1,3-cyclohexanedione dissolved in concentration 0 mg/ml, 1 mg/ml and 10 mg/ml in the total amount of broth and 1,4-cyclohexanedione and cyclopentanone at 0 mg/ml and 10 mg/ml. The microtiter plates were incubated statically for two days, at 20±1.0° C. After incubation, OD595 was measured before the plates were gently washed one time with 150 μl tap water. The plates were dried in room temperature before addition of 140 μl 1% crystal violet (Sigma-Aldrich). After 30 minutes incubation in room temperature, the plates were washed three times with tap water before addition of 140 μl ethanol:acetone (70:30 w:w) and incubated for another 10 minutes in room temperature. OD595 was measured in a microplate photometer (Multiscan EX) after the bound dye was dissolved using ethanol:acetone. For each strain, the result was calculated by subtracting the median OD595 of the three parallels of the control (test broth only) from the median OD595 of the three parallels of sample. Further, the averages of the Gram negative strains were calculated. Three independent experiments were performed and the average was evaluated.

[3] = tested on: SRB isolate ATCC 29579 Desulfovibrio vulgaris subspecies vulgaris; assay: Biofilm produced by SRB (sulphate reducing bacteria) on carbon steel coupon in fluids; assay type: cell-based; details: 10 mg/ml, 20 °C for 12 days
Method: One SRB isolate (the culture collection strain: ATCC 29579 Desulfovibrio vulgaris subspecies vulgaris) was tested. 1,4-cyclohexanedione and cyclopentanone were diluted in the culture medium ATCC 1249 to a concentration of 10 mg/ml (1%) and added to each their 50 ml Falcon centrifugal tube. A third tube, with 10 ml of medium only (ATCC 1249) was included as a control. 50 μl SRB starting culture was added to each of the three tubes together with a carbon steel coupon. Biofilm was formed on the coupon by incubating at 20° C. for 12 days. After incubation, the coupons were washed in 40 ml sterile saline to remove loosely adhered cells. A sample from this fluid was injected into SRB medium and blackening of the medium was visualized, showing that there were still free-floating bacteria present.

[4] = tested on: E. coli 1242 and E. coli 1153; assay: Biofilm formation in microtiter plates, comparison of 1,3-cyclohexanedione and menthone; assay type: cell-based, Escherichia coli; details: 1 mg/ml, two values, one per strain (E. coli 1242, E. coli 1153)
Method: as §1
as §2, with “A total of 30 μl of this suspension was transferred to each well in 96 wells polystyrene microtiter plates (Nunc, Nuncleon, Roskilde, Denmark) in triplets. The wells were containing 100 μl LB^wo/NaCl (bacto-tryptone 10 g/l, yeast extract 5 g/l) with 1,3-cyclohexanedione dissolved in concentration 0 mg/ml, 1 mg/ml and 10 mg/ml in the total amount of broth and 1,4-cyclohexanedione and cyclopentanone at 0 mg/ml and 10 mg/ml. The microtiter plates were incubated statically for two days, at 20±1.0° C.” left out, “The plates were dried in room temperature before addition of 140 μl 1% crystal violet (Sigma-Aldrich). After 30 minutes incubation in room temperature, the plates were washed three times with tap water before addition of 140 μl ethanol:acetone (70:30 w:w) and incubated for another 10 minutes in room temperature.” left out

Structure (SMILES)	decrease in biofilm formation, percentage of the control ([1]; 10 mg/ml) [%]	decrease in biofilm formation, percentage of the control [2] [%]	biofilm visualized on carbon steel coupon [3]	decrease in biofilm formation, percentage of the control ([1]; 1 mg/ml) [%]	decrease in biofilm formation, percentage of the control ([1]; 2 mg/ml) [%]	decrease in biofilm formation [4]
O=C1CCC(=O)CC1 [1,4-cyclohexanedione]	53	91	only scarce amount of biofilm could be visualized			
CCC1CC(=O)CC(=O)C1 [5-ethylcyclohexane-1,3-dione]	98			55	74	
CC1CC(=O)CC(=O)C1 [5-methyl-1,3-cyclohexanedione]	98			32	85	
O=C1CCCC1 [cyclopentanone, Cyclopentanone]		77	only scarce amount of biofilm could be visualized			
CC1CCC(C(C)C)C(=O)C1 (stereo not drawn) [menthone, 2-isopropyl-5-methylcyclohexane-1-on, reference compound]						27% and 48%
